Columns and labels:
[1] = target: T1, E3 ubiquitin-protein ligase CBL-B (Homo sapiens, UniProt Q13191); assay: Inhibition of N-terminal Avi-tagged human CBL-B (36 to 427 residues) incubated with 60 nM Src kinase for 1.5 hrs followed by incubation with fluorescently labeled UbcH5B-Ub for 1 hr and measured by TR-FRET assay; format: single protein
[2] = target: T1, E3 ubiquitin-protein ligase CBL-B; assay: Binding affinity towards N-terminal biotinylated Avi-tagged human CBL-B (36 to 427 residues) measured by surface plasmon resonance assay
[3] = Induction of anti-CD3/CD28 antibodies-stimulated human T cell activation at 1 uM assessed fold increase in IL-2 secretion measured by ELISA assay; format: functional, T cell line
[4] = Induction of anti-CD3/CD28 antibodies-stimulated human T cell activation at 0.3 uM assessed fold increase in IL-2 secretion measured by ELISA assay; format: functional, T cell line
[5] = Induction of anti-CD3 antibodies-stimulated human T cell activation at 1 uM assessed fold increase in IL-2 secretion measured by ELISA assay; format: functional, T cell line; further: reference of the scale not given here
[6] = Induction of anti-CD3/CD28 antibodies-stimulated human T cell activation at 1 uM assessed fold increase in CD25 expression measured by ELISA assay; format: functional, T cell line
[7] = Induction of anti-CD3/CD28 antibodies-stimulated human T cell activation at 0.3 uM assessed fold increase in CD25 expression measured by ELISA assay; format: functional, T cell line
[8] = Induction of anti-CD3 antibodies-stimulated human T cell activation at 1 uM assessed fold increase in CD25 expression measured by ELISA assay; format: functional, T cell line; further: reference of the scale not given here
[9] = Induction of anti-CD3 antibodies-stimulated human CD4+ T cell activation in immunocompetent mouse assessed fold increase in CD25 expression at 135 mg/kg, po administered twice a day; format: functional; further: reference of the scale not given here
[10] = Induction of anti-CD3 antibodies-stimulated human CD8+ T cell activation in immunocompetent mouse assessed fold increase in CD25 expression at 90 mg/kg, po administered twice a day; format: functional; further: reference of the scale not given here
[11] = Induction of anti-CD3/CD28 antibodies-stimulated human T cell activation at 4 uM assessed fold increase in IL-2 secretion measured by ELISA assay; format: functional, T cell line
[12] = Induction of anti-CD3 antibodies-stimulated human T cell activation at 8 uM assessed fold increase in IL-2 secretion measured by ELISA assay; format: functional, T cell line; further: reference of the scale not given here
[13] = Induction of anti-CD3/CD28 antibodies-stimulated human T cell activation at 4 uM assessed fold increase in CD25 expression measured by ELISA assay; format: functional, T cell line
[14] = Induction of anti-CD3 antibodies-stimulated human T cell activation at 8 uM assessed fold increase in CD25 expression measured by ELISA assay; format: functional, T cell line; further: reference of the scale not given here
[15] = Induction of allogenic human T cell activation at 10 uM assessed fold increase in cell proliferation; format: functional, T cell line
[16] = Induction of allogenic human T cell activation at 3 uM assessed fold increase in cell proliferation; format: functional, T cell line
[17] = Induction of anti-CD3 antibodies-stimulated human exhausted T cell activation assessed fold increase in IFN-gamma secretion measured by ELISA assay; format: functional, T cell line; further: reference of the scale not given here
[18] = Induction of anti-CD3 antibodies-stimulated human exhausted T cell activation assessed fold increase in IL-2 secretion measured by ELISA assay; format: functional, T cell line; further: reference of the scale not given here
[19] = Induction of anti-CD3 antibodies-stimulated human exhausted T cell activation assessed fold increase in GM-CSF secretion measured by ELISA assay; format: functional, T cell line; further: reference of the scale not given here
[20] = Induction of anti-CD3/CD28 antibodies-stimulated human anergic T cell activation at 10 uM assessed fold increase in IFN-gamma secretion measured by ELISA assay; format: functional, T cell line
[21] = Induction of anti-CD3/CD28 antibodies-stimulated human anergic T cell activation at 1.11 uM assessed fold increase in IFN-gamma secretion measured by ELISA assay; format: functional, T cell line
[22] = Induction of anti-CD3/CD28 antibodies-stimulated human anergic T cell activation at 0.37 uM assessed fold increase in IFN-gamma secretion measured by ELISA assay; format: functional, T cell line
[23] = tested on: B cell; assay: Induction of anti-IgM-stimulated human CD20+ B cell activation at 10 to 1000 uM assessed as increase in CD69 expression measured as mean fluorescence intensity AUC by flow cytometry analysis; format: functional, cell-based; settings: dose 10-1000 µM
[24] = Induction of activation of human CD56+ CD3- NK cells co-cultured with human K562 cells in 1:1 ratio and assessed as increase in IFN-gamma secretion at 10 uM measured by ELISA assay; format: functional, Natural killer cell
[25] = Induction of activation of human CD56+ CD3- NK cells co-cultured with human K562 cells in 1:1 ratio and assessed as increase in TNF-alpha secretion at 10 uM measured by ELISA assay; format: functional, Natural killer cell
[26] = Induction of activation of human CD56+ CD3- NK cells co-cultured with human K562 cells in 1:1 ratio and assessed as increase in IFN-gamma secretion at 2.5 uM measured by ELISA assay; format: functional, Natural killer cell
[27] = Induction of activation of human CD56+ CD3- NK cells co-cultured with human K562 cells in 1:1 ratio and assessed as increase in IFN-gamma secretion at 0.625 uM measured by ELISA assay; format: functional, Natural killer cell
[28] = Induction of activation of human CD56+ CD3- NK cells co-cultured with human K562 cells in 1:1 ratio and assessed as increase in TNF-alpha secretion at 2.5 uM measured by ELISA assay; format: functional, Natural killer cell
[29] = Induction of activation of human CD56+ CD3- NK cells co-cultured with human K562 cells in 1:1 ratio and assessed as increase in TNF-alpha secretion at 0.625 uM measured by ELISA assay; format: functional, Natural killer cell
[30] = Induction of anti-CD3 antibodies-stimulated human exhausted CD4+ T cell activation assessed fold increase in CTLA4 expression measured by flow cytometry analysis; format: functional, T cell line; further: reference of the scale not given here
[31] = Induction of anti-CD3 antibodies-stimulated human exhausted CD8+ T cell activation assessed fold increase in CTLA4 expression measured by flow cytometry analysis; format: functional, T cell line; further: reference of the scale not given here

T1 sequence (Q13191 whole entry, the tested form may be a part): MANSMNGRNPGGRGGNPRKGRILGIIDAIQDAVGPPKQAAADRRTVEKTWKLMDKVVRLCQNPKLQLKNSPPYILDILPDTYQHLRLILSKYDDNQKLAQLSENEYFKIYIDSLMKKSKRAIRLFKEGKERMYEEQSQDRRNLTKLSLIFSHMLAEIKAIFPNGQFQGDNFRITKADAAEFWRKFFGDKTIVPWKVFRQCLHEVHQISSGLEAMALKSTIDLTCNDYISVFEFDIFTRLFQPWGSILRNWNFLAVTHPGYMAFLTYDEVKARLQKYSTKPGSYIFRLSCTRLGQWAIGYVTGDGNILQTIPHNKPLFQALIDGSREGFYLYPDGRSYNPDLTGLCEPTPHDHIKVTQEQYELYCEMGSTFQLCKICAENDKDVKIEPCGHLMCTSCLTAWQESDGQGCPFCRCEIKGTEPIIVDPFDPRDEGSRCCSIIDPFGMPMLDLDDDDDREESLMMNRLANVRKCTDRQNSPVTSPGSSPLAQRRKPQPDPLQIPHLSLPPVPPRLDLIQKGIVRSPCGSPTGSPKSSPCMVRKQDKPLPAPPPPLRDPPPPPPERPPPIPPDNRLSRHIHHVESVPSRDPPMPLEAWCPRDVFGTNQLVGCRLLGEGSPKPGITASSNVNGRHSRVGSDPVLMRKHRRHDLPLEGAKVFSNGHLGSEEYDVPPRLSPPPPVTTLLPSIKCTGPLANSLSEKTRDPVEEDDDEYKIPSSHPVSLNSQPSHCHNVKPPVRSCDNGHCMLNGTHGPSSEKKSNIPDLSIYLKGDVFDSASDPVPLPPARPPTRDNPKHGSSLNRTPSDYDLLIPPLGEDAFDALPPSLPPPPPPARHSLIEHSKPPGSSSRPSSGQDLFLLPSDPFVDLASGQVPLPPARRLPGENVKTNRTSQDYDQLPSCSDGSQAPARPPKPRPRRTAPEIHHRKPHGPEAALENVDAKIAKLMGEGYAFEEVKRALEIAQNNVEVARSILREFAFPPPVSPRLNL

| Compound | IC50 [1] [nM] | fold change (FC) [3] | fold change (FC) [4] | fold change (FC) [5] | fold change (FC) [6] | fold change (FC) [7] | fold change (FC) [8] | fold change (FC) [9] | fold change (FC) [10] | fold change (FC) [11] | fold change (FC) [12] | fold change (FC) [13] | fold change (FC) [14] | other results |
| --- | --- | --- | --- | --- | --- | --- | --- | --- | --- | --- | --- | --- | --- | --- |
| Cn1cnnc1CC1(c2cccc(NC(=O)c3cc(CN4CC[C@H](F)C4)cc(C4CC4)n3)c2)COC1 | < 100 | >=7.5 | >=7.5 | >=0.201 | 1.51 | 1.51 | >=1.001 | 1.51 | 1 |  |  |  |  | Kd [2]: < 100 nM |
| CN1CC2CCC(C1)N2c1cc2c(c(C(F)(F)F)c1)CN(c1cccc(C3(Cc4nncn4C)COC3)c1)C2=O | < 100 | >=7.5 | >=7.5 | >=0.201 | 1.31 | 1.31 | >=1.001 | 1 | 1 |  |  |  |  |  |
| Cn1cnnc1CC1(c2cccc(N3Cc4c(cc(CN5CCC(F)CC5)cc4C(F)(F)F)C3=O)c2)COC1 | < 100 |  |  |  |  |  |  | 1.51 | 1 |  |  |  |  |  |
| C[C@@H](c1cc2c(c(C(F)(F)F)c1)CN(c1cccc(C3(Cc4nncn4C)COC3)c1)C2=O)N1CC2CC2C1 (some centres undefined) | < 100 | >=7.5 | >=7.5 | >=0.201 | 1.31 | 1.31 | >=1.001 | 1 | 1 |  |  |  |  |  |
| Cn1cnnc1C(F)(F)[C@](C)(F)c1cccc(N2Cc3c(cc(N4CCNCC4)cc3C(F)(F)F)C2=O)c1 | < 100 | >=7.5 | 2.51 | >=0.201 | 1.51 | 1.31 | >=1.001 |  |  | >=7.5 | 0.051 | 1.51 | 0.801 | fold change (FC) [15]: <=2; fold change (FC) [16]: <=2; fold change (FC) [17]: 1.41; fold change (FC) [18]: >3.01; fold change (FC) [19]: <=1.4; fold change (FC) [20]: 2.51; fold change (FC) [21]: 2.51; fold change (FC) [22]: <=2.5; AUC [23]: 0.5; fold change (FC) [24]: 2.01; fold change (FC) [25]: 2.01; fold change (FC) [26]: 2.01; fold change (FC) [27]: 1.01; fold change (FC) [28]: 2.01; fold change (FC) [29]: 2.01 |
| Cn1cnnc1CC1(c2cccc(N3Cc4c(cc(CN5C[C@H]6C[C@H]6C5)cc4C(F)(F)F)C3=O)c2)COC1 | < 100 | >=7.5 | >=7.5 | >=0.201 | 1.31 | 1.31 | >=1.001 | 1 | 1 | >=7.5 | >=0.201 | 1.51 | >=1.001 |  |
| C[C@H](c1cc2c(c(C(F)(F)F)c1)CN(c1cccc(C3(Cc4nncn4C)COC3)c1)C2=O)N1CCC(C)(F)CC1 | < 100 | >=7.5 | >=7.5 | >=0.201 | >=1.76 | >=1.76 | >=1.001 | >2.5 | 1 |  |  |  |  |  |
| Cn1cnnc1CC1(c2cccc(N3Cc4c(cc(CN5CCC[C@H](F)C5)cc4C(F)(F)F)C3=O)c2)COC1 | < 100 | >=7.5 | >=7.5 | >=0.201 | 1.31 | 1.31 | >=1.001 | 1 | 1 |  |  |  |  |  |
| C[C@H](Cc1nncn1C)c1ccnc(NC(=O)c2cccc(C(F)(F)F)n2)c1 |  | 2.51 | 2.51 | <=0.05 | 1.01 | 1.01 | <=0.6 |  |  | >=7.5 | 0.051 | 1.01 | 0.801 | fold change (FC) [15]: <=2; fold change (FC) [16]: <=2; fold change (FC) [17]: <=1.4; fold change (FC) [18]: <=2.5; fold change (FC) [19]: <=1.4; fold change (FC) [30]: <=1.4; fold change (FC) [31]: <=1.4; fold change (FC) [20]: <=2.5; fold change (FC) [21]: <=2.5; fold change (FC) [22]: <=2.5; AUC [23]: 0.5; fold change (FC) [24]: 2.01; fold change (FC) [25]: 1.01; fold change (FC) [26]: <=1; fold change (FC) [27]: 1.01; fold change (FC) [28]: 1.01; fold change (FC) [29]: 1.01 |
| Cn1cnnc1CC1(c2cccc(N3Cc4c(cc(CN5CC6(CC6)C5)cc4C(F)(F)F)C3=O)c2)COC1 | < 100 | >=7.5 | >=7.5 | >=0.201 | 1.31 | 1.31 | >=1.001 | 1.51 | 1 |  |  |  |  |  |

— ChEMBL document CHEMBL5050844 (2019)
